Test system in the first data set: not listed separately
Briefly: logP measurement by HPLC on reversed phase columns (EEC directive 79/831 Annex V.A8). The data set is classed as physicochemical. The settings on record: pH 2.7, pH 2,7 with 0,1 % formic acid in water and acetonitrile, linear gradient 10 % to 95 % acetonitrile.
Consider `CCOC(=O)C(C#N)=C(SC(C)C(C)C)c1cccnc1Cl` (centres unmarked) [Example 1], for which the chromatographic logP (usually a lipophilicity value derived from retention on a column) worked out at 3.8.
Same read-out and setting: with `CCOC(=O)C(C#N)=C(OC(C)C(CC)CC)c1cccnc1Cl` (centres unmarked) [Example 2] the figure was 3.96.
Same read-out and setting: with `CCOC(=O)C(C#N)=C(SC(C)CC)c1cn(C)nc1C(F)F` (centres unmarked) [Example 3] the figure was 3.11; with `CCOC(=O)C(C#N)=C(OC(C)CC(C)(C)C)c1cccnc1Cl` (centres unmarked) [Example 4], 3.92.
The same measure, in the same setting: then `CCOC(=O)C(C#N)=C(OC(C)C(C)(C)C)c1cccnc1Cl` (centres unmarked) [Example 5], with 3.57.
`CCOC(=O)C(C#N)=C(SC(C)C(C)C)c1ccnn1C(F)F` (centres unmarked) [Example 6] registered a chromatographic logP of 3.59.
Same read-out and setting: then `CCOC(=O)C(C#N)=C(OC(C)C(C)C)c1cccnc1Cl` (centres unmarked) [Example 7], with 3.27.
In the case of `CCOC(=O)C(C#N)=C(OC(C)COC)c1cccnc1Cl` (centres unmarked) [Example 8], the chromatographic logP was found to be 2.44.
The same measure, in the same setting: with `CCOC(=O)C(C#N)=C(OC(C)C1=NOCCO1)c1cccnc1Cl` (centres unmarked) [Example 9] the figure was 2.2; with `C#CCC(C)OC(=C(C#N)C(=O)OCC)c1cccnc1Cl` (centres unmarked) [Example 10], 2.61; with `CCOC(=O)C(C#N)=C(OC(C)c1ccc(Cl)nc1)c1cccnc1Cl` (centres unmarked) [Example 11], 2.9.
The same measure, in the same setting: with `CCOC(=O)C(C#N)=C(OC(C)C(C)C)c1cn(C)nc1C(F)F` (centres unmarked) [Example 12] the figure was 2.98.
Same read-out and setting: with `CCOC(=O)C(C#N)=C(O[C@H](C)C(=O)OCC)c1cccnc1Cl` [Example 13] the figure was 2.71.
Compound `CCOC(=O)C(C#N)=C(OC(C)C(C)C)c1ccnn1C(F)F` (centres unmarked) [Example 15] came in with a chromatographic logP of 3.25.
The same measure, in the same setting: with `CCOC(=O)C(C#N)=C(OC(C)C(C)C)c1scnc1Cl` (centres unmarked) [Example 16] the figure was 3.37.
On the same count and under the same terms, with `CCOC(=O)C(C#N)=C(SC(C)c1ccccn1)c1cccnc1Cl` (centres unmarked) [Example 17] the figure was 2.51; with `CCOC(=O)C(C#N)=C(SC(C)C(C)C)c1cn(C)nc1C(F)F` (centres unmarked) [Example 19], 3.3; with `CCOC(=O)C(C#N)=C(O[C@@H](C)C(=O)OC)c1cccnc1Cl` [Example 20], 2.4.
`CCOC(=O)C(C#N)=C(OC1CCCCC1C)c1cccnc1Cl` (centres unmarked) [Example 21] returned a chromatographic logP of 3.74.
The same measure, in the same setting: then `CCOC(=O)C(C#N)=C(SC(C)C(C)C)c1scnc1Cl` (centres unmarked) [Example 22], with 3.79.
Same read-out and setting: then `CCOC(=O)C(C#N)=C(OC(C)c1ccccn1)c1cccnc1Cl` (centres unmarked) [Example 23], with 2.39; and `CCOC(=O)C(C#N)=C(OC1(C(=O)OCC)CC1)c1cccnc1Cl` [Example 24], with 2.9.
On the same count and under the same terms, then `CCCC(C)SC(=C(C#N)C(=O)OCC)c1cccnc1Cl` (centres unmarked) [Example 25], with 3.78; and `CCOC(=O)C(C#N)=C(OC(C)C=C(Cl)Cl)c1cccnc1Cl` (centres unmarked) [Example 26], with 3.33.

In the next data set the test system is Plasmopara viticola. Briefly: Plasmopara test (grapevines) / preventive. The data set is classed as in vivo. The settings on record: preventive spray, 100 ppm of active ingredient, evaluated 6 days after the inoculation, 100 % = no disease. Here is the method:
Plasmopara test (grapevines) / preventive
To produce a suitable preparation of active compound, 1 part by weight of active compound is mixed with the stated amounts of solvent and emulsifier, and the concentrate is diluted with water to the desired concentration.
To test for preventive activity, young plants are sprayed with the preparation of active compound at the stated rate of application. After the spray coating has dried on, the plants are inoculated with an aqueous spore suspension of Plasmopara viticola and then remain for 1 day in an incubation cabinet at approximately 20°C and a relative atmospheric humidity of 100 %. The plant is subsequently placed for 4 days in a greenhouse at approximately 21°C and a relative atmospheric humidity of approximately 90 %. The plants are then misted and placed for 1 day in an incubation cabinet.
The test is evaluated 6 days after the inoculation. 0 % means an efficacy which corresponds to that of the untreated control, while an efficacy of 100 % means that no disease is observed.
`CCOC(=O)C(C#N)=C(SC(C)C(C)C)c1cccnc1Cl` (centres unmarked) [Example 1] displayed an Efficacy in % of 88%.
Same read-out and setting: then `CCOC(=O)C(C#N)=C(SC(C)C(C)C)c1cn(C)nc1C(F)F` (centres unmarked) [Example 19], with 92%.

Values taken from patent EP2510787A1, “Propenoates as fungicides” (Bayer CropScience AG, priority 2011, dated 2012).
